Results reported in patent US20240335464A1, “ADMINISTRATION OF STING AGONIST, CHECKPOINT INHIBITORS, AND RADIATION” (Takeda Pharmaceutical Company Limited, priority 2020, published 2024).

Test system: B16F10 ova melanoma tumor
Experiment: Study 5: B16F10-Ova subcutaneous tumor model, anti-tumor efficacy
Type: in vivo, female C57Bl/6 mice
Conditions: for GRI (%) (Day 10): vs vehicle
Procedure: Study 5: B16F10-Ova is a cell line derived from B16F10 melanoma that expresses chicken ovalbumin. Seven-week-old female C57Bl/6 mice (Jackson Labs, Maine) were inoculated subcutaneously with 0.04×10^6 B16F10 ova tumor cells and monitored for tumor growth. Once the tumors reached an average of 100-250 mm^3, animals were irradiated with either mock irradiation or 16 Gy of focal beam irradiation (Study Day 0). Animals were then dosed intravenously with either vehicle (PBS) or 0.25 mg/kg of Compound No. 14 on a Q3Dx3 scheduled beginning on Study Day 1. Animals were monitored for tumor volumes and body weight changes twice weekly throughout the study once they reached their humane endpoint. GRI was calculated on the last day with animals remaining in the vehicle group (Study Day 10).
Study 5: A 5 mg/mL stock solution of Compound No. 14 was formulated in PBS at the final concentration of 0.0667 mg/mL and administered intravenously (IV). Final doses received were 0.25 mg/kg. […] Compound No. 14 was administered on a Q3D schedule for 3 doses in single agent treatment group and in combination treatment groups beginning on Day 1. Dose formulation of Compound No. 14 was prepared once and utilized for dosing on each treatment day.
Studies 4 and 5: Radiation treatment for Studies 4 and 5 were performed using focal beam radiation with volumentric image guidance from computer tomography scans on the SmART (Small animal image-guided radiotherapy) platform (Precision XRay Inc., North Branford, CT). Animals received 4.52 Gy/min of radiation and approximately 1.8 min was needed to reach 8 Gy dose delivery (Study 4) or […] was needed to reach 16 Gy dose delivery (Study 5). Animals were anesthetized during imaging and radiation treatment using 1-2% isoflurane.
Growth Rate Inhibition: The differences in the tumor growth trends over time between pairs of treatment groups were assessed by fitting each animal's data to a simple exponential growth model and comparing the mean growth rates of the two groups, as described in more detail below. The difference in the growth rates was summarized by the GRI, which is the reduction in growth rate experienced by the treatment group relative to that of the reference group, expressed as a fraction of the vehicle growth rate.
μT and μC are the mean tumor growth rates for the treatment and reference groups, respectively. μV is the mean tumor growth rate for the vehicle group, which in most cases is the same as the reference group.
A GRI greater than 100% is interpreted as tumor regression when the vehicle group is the same as the reference group. A negative value of the GRI means that the tumors in the treatment group grew faster than the tumors in the reference group. Statistical significance was determined using an unpaired t-test.
Tumor Growth Rate Computation: Low tumor volumes can cause problems with the data analysis, so all measurements below 25 cubic mm (including 0 values) were excluded from the analysis. After this exclusion step, the tumor volume was assumed to follow an exponential growth model. More specifically, for a given animal and treatment group,
where Vi is the tumor volume at the i^th time point. Here, a is the initial log volume, b is the tumor growth rate, and t1 is the measurement time in days. εi is the residual error term, which was assumed to be uncorrelated and drawn from a normal distribution.
This model was fit separately for each animal within each treatment group. If an animal was sacrificed or died early, but at least two unique time points were measured (including baseline), then the data up to that point was used to estimate the growth rate. If the animal had measurements at less than two time points, then the animal was automatically excluded from the analysis.
In rare cases, the estimated growth rate for one or more animals might be very different from the other animals within the same group. […]

[1] = TG02 Compound No.14 0.25 mg/kg Q3Dx3 IV, single agent
[2] = TG04 Compound No.14 0.25 mg/kg Q3Dx3 IV + radiation 16 Gy, through Day 10

## Nc1ncnc2c1ncn2[C@@H]1O[C@@H]2COP(=O)(S)O[C@@H]3[C@H](O)[C@@H](COP(=O)(S)O[C@H]2[C@H]1F)O[C@H]3n1cc(F)c2c(=O)[nH]cnc21 (stereo partly drawn) [Compound No. 14]
[1]
  Number of Animals Removed: 4
  GRI (%) (Day 10): 11%
TG04 Compound No.14 0.25 mg/kg Q3Dx3 IV + radiation 16 Gy
  Number of Animals Removed: 0
TG04 Compound No.14 0.25 mg/kg Q3Dx3 IV + radiation 16 Gy (Day 0)
  GRI (%) (Day 10): 67%
[2]
  Combination Assessment: Additive
  Synergy Score %: −21%
